Source: patent US20120244567A1, “HUMAN EMBRYONIC STEM CELLS FOR HIGH THROUGHOUT DRUG SCREENING” (BUCK INSTITUTE FOR RESEARCH ON AGING, priority 2009, published 2012)
Where a name gives a salt, the structure may show the parent alone.

Tested on: dopaminergic neurons
Settings: enriched in treated DA neurons
Method: RNAs isolated from NSCs and neurons with and without drug treatments were hybridized to Illumina HumanRef-8 BeadChip (Illumina, Inc., San Diego, Calif., performed by Microarray core facility at the Burnham Institute for Medical Research). The Illumina array data were normalized by the quantile method, and then transformed log 2 ratio values for a zero mean for expression values of each gene across all samples. The statistical and bioinformatics analyses were conducted by using R and the bioconductor package (www.bioconductor.org). The gene set enrichment analysis was conducted using the GSEA software (www.broad.mit.edu/gsea).
The comparative results are then measured by a non-parametric, running sum statistic termed the enrichment score. The enrichment score significance is assessed by 1,000 permutation tests to compute the enrichment p-value.

In the case of `CCCCc1oc2ccccc2c1C(=O)c1cc(I)c(OCCN(CC)CC)c(I)c1` [Amiodarone Hydrochloride], the “Nes: Secondary Active Transmembrane Transporter Activity” value (Nom P-Val 0) was 1.633, the “Nes: Protein Serine Threonine Kinase Activity” value (Nom P-Val 0.027778) was 1.386 and the “Nes: Sequence Specific Dna Binding” value (Nom P-Val 0.056338) was 1.388. The “Nes: Phosphotransferase Activity Alcohol Group As Acceptor” value (Nom P-Val 0.059524) was 1.237, the “Nes: Anion Transmembrane Transporter Activity” value (Nom P-Val 0.065574) was 1.432 and the “Nes: Lipase Activity” value (Nom P-Val 0.067797) was 1.422. The “Nes: Active Transmembrane Transporter Activity” value (Nom P-Val 0.082192) was 1.376, the “Nes: Receptor Signaling Protein Serine Threonine Kinase Activity” value (Nom P-Val 0.157895) was 1.268 and the “Nes: Protein Kinase Activity” value (Nom P-Val 0.176471) was 1.196. For the same molecule, the “Nes: Structural Constituent Of Muscle” value (Nom P-Val 0.207547) was 1.208, the “Nes: Structure Specific Dna Binding” value (Nom P-Val 0.230769) was 1.183 and the “Nes: Receptor Signaling Protein Activity” value (Nom P-Val 0.236842) was 1.149. For the same molecule, the “Nes: Ligase Activity Forming Carbon Nitrogen Bonds” value (Nom P-Val 0.242857) was 1.127, the “Nes: Small Conjugating Protein Ligase Activity” value (Nom P-Val 0.243243) was 1.144 and the “Nes: Ligase Activity” value (Nom P-Val 0.25) was 1.14. For the same molecule, the “Nes: Phosphoric Diester Hydrolase Activity” value (Nom P-Val 0.25) was 1.183, the “Nes: Rhodopsin Like Receptor Activity” value (Nom P-Val 0.25) was 1.144 and the “Nes: Small Protein Conjugating Enzyme Activity” value (Nom P-Val 0.257576) was 1.146. For the same molecule, the “Nes: Deoxyribonuclease Activity” value (Nom P-Val 0.258621) was 1.315, the “Nes: Acid Amino Acid Ligase Activity” value (Nom P-Val 0.28) was 1.18 and the “Nes: Ubiquitin Protein Ligase Activity” value (Nom P-Val 0.301587) was 1.139. The “Nes: Atp Binding” value (Nom P-Val 0.318841) was 1.077, the “Nes: Atpase Activity Coupled To Movement Of Substances” value (Nom P-Val 0.355932) was 1.065 and the “Nes: Dna Binding” value (Nom P-Val 0.359551) was 1.034. The “Nes: Nuclease Activity” value (Nom P-Val 0.360656) was 1.072, the “Nes: Hydrogen Ion Transmembrane Transporter Activity” value (Nom P-Val 0.366667) was 1.078 and the “Nes: Udp Glycosyltransferase Activity” value (Nom P-Val 0.366667) was 1.093. For the same molecule, the “Nes: Kinase Activity” value (Nom P-Val 0.367816) was 1.036, the “Nes: Rna Polymerase Ii Transcription Factor Activity” value (Nom P-Val 0.371429) was 1.042 and the “Nes: Hydrolase Activity Acting On Acid Anhydrides Catalyzing Transmembrane Movement Of Substances” value (Nom P-Val 0.376812) was 1.094. For the same molecule, the “Nes: Double Stranded Dna Binding” value (Nom P-Val 0.37931) was 1.072, the “Nes: Enzyme Activator Activity” value (Nom P-Val 0.382353) was 1.049 and the “Nes: Transmembrane Receptor Activity” value (Nom P-Val 0.382716) was 1.055. The “Nes: Inorganic Cation Transmembrane Transporter Activity” value (Nom P-Val 0.40625) was 1.065, the “Nes: Enzyme Inhibitor Activity” value (Nom P-Val 0.409091) was 1.052 and the “Nes: Transferase Activity Transferring Groups Other Than Amino Acyl Groups” value (Nom P-Val 0.415385) was 1.05. The “Nes: Endonuclease Activity” value (Nom P-Val 0.419355) was 0.9859, the “Nes: Cytokine Activity” value (Nom P-Val 0.421875) was 1.063 and the “Nes: Oxidoreductase Activity Acting On Ch Oh Group Of Donors” value (Nom P-Val 0.424242) was 1.054. For the same molecule, the “Nes: Oxidoreductase Activity Acting On The Ch Ch Group Of Donors” value (Nom P-Val 0.428571) was 1.028, the “Nes: Primary Active Transmembrane Transporter Activity” value (Nom P-Val 0.430556) was 1.056 and the “Nes: Gtpase Activity” value (Nom P-Val 0.442857) was 1.015. For the same molecule, the “Nes: Transferase Activity Transferring Acyl Groups” value (Nom P-Val 0.451613) was 1.003, the “Nes: Damaged Dna Binding” value (Nom P-Val 0.45283) was 1.036 and the “Nes: Phosphatase Regulator Activity” value (Nom P-Val 0.467742) was 1.042. For the same molecule, the “Nes: N Acetyltransferase Activity” value (Nom P-Val 0.473684) was 1.019, the “Nes: Structural Constituent Of Cytoskeleton” value (Nom P-Val 0.482759) was 0.9708 and the “Nes: Adenyl Ribonucleotide Binding” value (Nom P-Val 0.506667) was 0.9848. For the same molecule, the “Nes: G Protein Coupled Receptor Activity” value (Nom P-Val 0.514706) was 0.9852, the “Nes: Protease Inhibitor Activity” value (Nom P-Val 0.516667) was 0.9864 and the “Nes: Transmembrane Receptor Protein Kinase Activity” value (Nom P-Val 0.516667) was 0.965. For the same molecule, the “Nes: N Acyltransferase Activity” value (Nom P-Val 0.519231) was 0.9889, the “Nes: Enzyme Regulator Activity” value (Nom P-Val 0.520548) was 0.9793 and the “Nes: Hormone Activity” value (Nom P-Val 0.523077) was 0.9749. The “Nes: General Rna Polymerase Ii Transcription Factor Activity” value (Nom P-Val 0.530612) was 0.9238, the “Nes: Pyrophosphatase Activity” value (Nom P-Val 0.54321) was 0.9536 and the “Nes: Purine Ribonucleotide Binding” value (Nom P-Val 0.5625) was 0.9577. For the same molecule, the “Nes: Receptor Activity” value (Nom P-Val 0.5625) was 0.9738, the “Nes: Transferase Activity Transferring Sulfur Containing Groups” value (Nom P-Val 0.566667) was 0.9403 and the “Nes: Magnesium Ion Binding” value (Nom P-Val 0.567568) was 0.9401. The “Nes: Integrin Binding” value (Nom P-Val 0.571429) was 0.9141, the “Nes: Substrate Specific Transporter Activity” value (Nom P-Val 0.573171) was 0.929 and the “Nes: Acetyltransferase Activity” value (Nom P-Val 0.6) was 0.9474. The “Nes: Single Stranded Dna Binding” value (Nom P-Val 0.605634) was 0.9533, the “Nes: Protein Homodimerization Activity” value (Nom P-Val 0.621212) was 0.8817 and the “Nes: Protein Domain Specific Binding” value (Nom P-Val 0.628571) was 0.9357. The “Nes: Lipid Transporter Activity” value (Nom P-Val 0.62963) was 0.9194, the “Nes: Protein Dimerization Activity” value (Nom P-Val 0.636364) was 0.9248 and the “Nes: Ion Transmembrane Transporter Activity” value (Nom P-Val 0.64) was 0.9276. For the same molecule, the “Nes: Transferase Activity Transferring Hexosyl Groups” value (Nom P-Val 0.642857) was 0.9266, the “Nes: Nucleotide Binding” value (Nom P-Val 0.643836) was 0.9324 and the “Nes: Transferase Activity Transferring Phosphorus Containing Groups” value (Nom P-Val 0.64557) was 0.9499. For the same molecule, the “Nes: Zinc Ion Binding” value (Nom P-Val 0.647059) was 0.896, the “Nes: Translation Regulator Activity” value (Nom P-Val 0.661017) was 0.8764 and the “Nes: Translation Factor Activity Nucleic Acid Binding” value (Nom P-Val 0.681159) was 0.8454. The “Nes: Carbohydrate Binding” value (Nom P-Val 0.688525) was 0.8882, the “Nes: Adenyl Nucleotide Binding” value (Nom P-Val 0.694118) was 0.8847 and the “Nes: Microtubule Binding” value (Nom P-Val 0.696429) was 0.8123. The “Nes: Substrate Specific Transmembrane Transporter Activity” value (Nom P-Val 0.697368) was 0.9071, the “Nes: Transcription Cofactor Activity” value (Nom P-Val 0.7) was 0.8775 and the “Nes: Transcription Coactivator Activity” value (Nom P-Val 0.708333) was 0.8777. For the same molecule, the “Nes: Sulfotransferase Activity” value (Nom P-Val 0.719298) was 0.88, the “Nes: Endopeptidase Activity” value (Nom P-Val 0.720588) was 0.8136 and the “Nes: Metallopeptidase Activity” value (Nom P-Val 0.733333) was 0.8731. The “Nes: Neurotransmitter Binding” value (Nom P-Val 0.754717) was 0.789, the “Nes: Neurotransmitter Receptor Activity” value (Nom P-Val 0.757576) was 0.7972 and the “Nes: Lyase Activity” value (Nom P-Val 0.758065) was 0.8646. The “Nes: Transmembrane Transporter Activity” value (Nom P-Val 0.759494) was 0.8985, the “Nes: Transcription Repressor Activity” value (Nom P-Val 0.76) was 0.8555 and the “Nes: Nucleoside Triphosphatase Activity” value (Nom P-Val 0.761905) was 0.8734. For the same molecule, the “Nes: Purine Nucleotide Binding” value (Nom P-Val 0.763158) was 0.861, the “Nes: Hydrolase Activity Acting On Acid Anhydrides” value (Nom P-Val 0.770115) was 0.8688 and the “Nes: Motor Activity” value (Nom P-Val 0.77193) was 0.7716. The “Nes: Calcium Channel Activity” value (Nom P-Val 0.781818) was 0.7534, the “Nes: Hydro Lyase Activity” value (Nom P-Val 0.792453) was 0.773 and the “Nes: Calcium Ion Binding” value (Nom P-Val 0.805556) was 0.7913. For the same molecule, the “Nes: Hydrolase Activity Acting On Carbon Nitrogen But Not Peptide Bonds In Linear Amides” value (Nom P-Val 0.826923) was 0.6663, the “Nes: Transmembrane Receptor Protein Tyrosine Kinase Activity” value (Nom P-Val 0.828947) was 0.7856 and the “Nes: Ion Binding” value (Nom P-Val 0.833333) was 0.813. The “Nes: Molecular Adaptor Activity” value (Nom P-Val 0.84507) was 0.7682, the “Nes: Gtp Binding” value (Nom P-Val 0.848485) was 0.769 and the “Nes: Guanyl Nucleotide Exchange Factor Activity” value (Nom P-Val 0.857143) was 0.7708. The “Nes: Carbon Oxygen Lyase Activity” value (Nom P-Val 0.86) was 0.7402.
